A value given as a limit tells only on which side of the number the result lay.

The target of experiment [1] is T1, 5-LOX (Homo sapiens, UniProt P09917).
T1 sequence (P09917 1-674): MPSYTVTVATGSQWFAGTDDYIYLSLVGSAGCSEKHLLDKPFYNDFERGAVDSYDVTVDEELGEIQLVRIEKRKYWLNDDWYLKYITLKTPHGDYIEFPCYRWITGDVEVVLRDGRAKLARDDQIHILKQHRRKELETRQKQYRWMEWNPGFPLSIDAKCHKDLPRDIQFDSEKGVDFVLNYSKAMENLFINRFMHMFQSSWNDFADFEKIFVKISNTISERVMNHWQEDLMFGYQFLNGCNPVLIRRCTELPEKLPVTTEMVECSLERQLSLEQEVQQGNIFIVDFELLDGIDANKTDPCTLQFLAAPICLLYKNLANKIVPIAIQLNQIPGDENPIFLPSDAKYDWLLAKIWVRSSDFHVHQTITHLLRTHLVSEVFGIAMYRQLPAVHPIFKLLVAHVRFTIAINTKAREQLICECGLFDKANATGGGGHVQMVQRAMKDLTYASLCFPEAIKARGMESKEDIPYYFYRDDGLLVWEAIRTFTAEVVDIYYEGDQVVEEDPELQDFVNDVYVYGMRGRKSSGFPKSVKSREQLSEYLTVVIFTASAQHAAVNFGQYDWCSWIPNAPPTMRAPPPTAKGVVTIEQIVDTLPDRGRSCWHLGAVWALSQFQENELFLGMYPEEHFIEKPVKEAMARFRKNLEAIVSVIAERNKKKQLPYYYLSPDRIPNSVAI
Nature of the experiment: Cell-free 5-LOX activity (isolated human recombinant enzyme). As to conditions: for IC50: read-out: 5-LOX enzyme IC50, isolated human 5-LOX, cell-free, mean ± SEM; for remaining activity at 1 µM: read-out: 5-LOX enzyme residual activity at 1 μM.
Experimental: Human recombinant 5-LOX was expressed in E. coli Bl21 (DE3) cells that were transformed with pT3–5LOX (wt 5-LOX), 5-LOX_3W (triple mutation of Trp102Ala/Trp13Ala/Trp75Ala), or 5-LOX_R (single mutant of the Arg101Asp plasmid) and purified on an ATP-agarose column (Econo-Pac, Bio-Rad, Hercules, CA) by affinity chromatography.[6],[75]
Purified 5-LOX (0.5 μg in PBS pH 7.4 containing 1 mM EDTA and 1 mM ATP) was preincubated with the vehicle (DMSO) or test compounds for 10 min and prewarmed at 37 °C.

The target of experiment [2] is T1, 5-LOX. The experiment can be described thus: 5-LOX product formation in activated PMNL.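 As to all read-outs here: freshly isolated human PMNL in PBS pH 7.4 plus glucose, preincubated 10 min at 37 °C with compound, 5-LOX products (all-trans LTB4 isomers, 5-HETE) quantified by RP-HPLC.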 To be noted: for remaining activity at 3 µM / remaining activity at 1 µM: PMNL; for remaining activity at 3 µM: read-out: 5-LOX PMNL residual activity at 3 μM; for IC50: read-out: 5-LOX PMNL IC50, 5-LOX product formation in activated PMNL, mean ± SEM; for remaining activity at 1 µM: read-out: 5-LOX PMNL residual activity at 1 μM (cells marked b).
Experimental: These volunteers regularly donated blood (every 8–12 weeks) and were physically inspected by a clinician.
Erythrocytes were removed by dextran sedimentation and hypotonic lysis. PMNL were obtained from the cell pellet and platelets from the supernatant.
Freshly isolated PMNL (5 × 10^6) suspended in PBS pH 7.4 with 1 mg/mL glucose or freshly withdrawn human whole blood were preincubated with the test compounds for 10 min (or as indicated) at 37 °C. […] The reaction was stopped with an equal volume of methanol.

On to `C/C(=C\CC[C@]1(C)CCc2c(C)c(O)cc(C)c2O1)CC/C=C(\C)CCCC(C)C(=O)O` (stereo partly drawn) [Compound 19a, (6E,10E)-13-((R)-6-Hydroxy-2,5,8-trimethylchroman-2-yl)-2,6,10-trimethyltrideca-6,10-dienoic Acid], for which, on 5-LOX [1], the IC50 is 810 ± 80 nM and the remaining activity at 1 µM was 41.2 ± 6.2%. At 5-LOX [2], the remaining activity at 3 µM came out at 14.2 ± 6.5% and the IC50 turned out to be 810 ± 330 nM.
For `C/C(=C\CC[C@]1(C)CCc2cc(O)cc(C)c2O1)CC/C=C(\C)CCCC(C)C(=O)O` (stereo partly drawn) [Compound 19b, (6E,10E)-13-((R)-6-Hydroxy-2,8-dimethylchroman-2-yl)-2,6,10-trimethyltrideca-6,10-dienoic Acid], the remaining activity at 1 µM at 5-LOX [1] is 7.4 ± 2.7%. Moreover, on 5-LOX [2], the remaining activity at 3 µM was 3.8 ± 0.8% and the IC50 was 610 ± 150 nM.
As for `COC(=O)C(C)CCC/C(C)=C/CC/C(C)=C/CC[C@]1(C)CCc2cc(O)cc(C)c2O1` (stereo partly drawn) [Compound 21, (6E,10E)-Methyl-13-((R)-6-hydroxy-2,8-dimethylchroman-2-yl)-2,6,10-trimethyltrideca-6,10-dienoate], at 5-LOX [1], the IC50 worked out at 170 ± 10 nM and the remaining activity at 1 µM came to 5.8 ± 1.7%. Also, on 5-LOX [2], the remaining activity at 3 µM came out at 14.1 ± 6% and the IC50 is 1140 ± 390 nM.
With `C/C(=C\CC/C(C)=C/CC[C@]1(C)CCc2c(CN(C)C)c(O)cc(C)c2O1)CC/C=C(\C)C(=O)O` [Compound 23], at 5-LOX [1], the IC50 worked out at 70 ± 20 nM and the remaining activity at 1 µM was determined as 7.9 ± 3.6%. For the same compound, on 5-LOX [2], the remaining activity at 3 µM was found to be 33.1 ± 8% and the IC50 was 2060 ± 450 nM.
Taken in the same sequence, the figures for `C/C(=C\CC/C(C)=C/CC[C@]1(C)CCc2c(CN(C)C)c(O)c(CN(C)C)c(C)c2O1)CC/C=C(\C)C(=O)O` [Compound 24] were > 1000 nM, 95.2 ± 7.9%, 82.1 ± 24.1% and > 3000 nM.
On to `COC(=O)/C(C)=C/CC/C(C)=C/CC/C(C)=C/CC[C@]1(C)CCc2c(c(C)cc(O)c2C(=O)OC)O1` [Compound 25, (R)-Methyl-6-hydroxy-2-((3E,7E,11E)-13-methoxy-4,8,12-trimethyl-13-oxotrideca-3,7,11-trien-1-yl)-2,8-dimethylchroman-5-carboxylate], for which, on 5-LOX [1], the IC50 was > 1000 nM and the remaining activity at 1 µM was determined as 54.5 ± 8.4%. At 5-LOX [2], the remaining activity at 3 µM was found to be 79.9 ± 3.6% and the IC50 is > 3000 nM.
In the case of `Cc1cc(O)cc2c1O[C@](C)(CCCC(C)CCCC(C)CCCC(CO)CO)CC2` (stereo partly drawn) [Compound 26, 2-(11-((R)-6-Hydroxy-2,8-dimethylchroman-2-yl)-4,8-dimethylundecyl)propane-1,3-diol], on 5-LOX [1], the IC50 was > 1000 nM and the remaining activity at 1 µM amounted to 53.1 ± 7.4%. Further, on 5-LOX [2], the remaining activity at 3 µM amounted to 81.3 ± 0.7% and the IC50 was > 3000 nM.
With `C/C(=C\CC/C(C)=C/CC[C@]1(C)CCc2c(C)c(O)cc(C)c2O1)CCC=C(CO)CO` [Compound 27b], at 5-LOX [1], the IC50 is 90 ± 20 nM and the remaining activity at 1 µM is 0%. Besides, on 5-LOX [2], the remaining activity at 3 µM is 0.9 ± 0.5% and the IC50 amounted to 100 ± 20 nM.
Turning to `C/C(=C\CC/C(C)=C/CC[C@]1(C)CCc2cc(O)c(C)c(C)c2O1)CCC=C(CO)CO` [Compound 27c], the remaining activity at 1 µM on 5-LOX [1] is 0.1 ± 0.1%. Moreover, at 5-LOX [2], the remaining activity at 3 µM turned out to be 0.8 ± 0.2% and the IC50 came out at 50 ± 40 nM.
For the compound `C/C(=C\CC/C(C)=C/CC[C@]1(C)CCc2cc(O)cc(C)c2O1)CCC=C(CO)CO` [Compound 27d, δ-amplexichromanol], the remaining activity at 1 µM at 5-LOX [1] came to 1.8 ± 0.9%. On 5-LOX [2], the remaining activity at 1 µM was 14.7 ± 1.6% and the IC50 was found to be 430 ± 40 nM.
Turning to `C/C(=C\CC[C@]1(C)CCc2cc(O)cc(C)c2O1)CCC=C(CO)CO` [Compound 28, (R,E)-2-(7-(6-Hydroxy-2,8-dimethylchroman-2-yl)-4-methylhept-4-en-1-ylidene)propane-1,3-diol], on 5-LOX [1], the half-inhibitory concentration (IC50) turned out to be 170 ± 30 nM and the remaining activity at 1 µM is 15 ± 2.4%. Further, on 5-LOX [2], the remaining activity at 3 µM is 36.3 ± 6.5% and the IC50 is 2300 ± 260 nM.
For `Cc1cc(O)cc2c1O[C@](C)(CCC=C(CO)CO)CC2` [Compound 29, (R)-2-(3-(6-Hydroxy-2,8-dimethylchroman-2-yl)propylidene)propane-1,3-diol], at 5-LOX [1], the IC50 is > 1000 nM and the remaining activity at 1 µM stood at 79.7 ± 3.5%. Further, on 5-LOX [2], the remaining activity at 3 µM stood at 86.4 ± 0.8% and the IC50 is > 3000 nM.
As for `C/C(=C\CC/C(C)=C/CC[C@]1(C)CCc2cc(OC(=O)CCC(=O)O)cc(C)c2O1)CCC=C(CO)CO` [Compound 31, 4-(((R)-2-((3E,7E)-13-Hydroxy-12-(hydroxymethyl)-4,8-dimethyltrideca-3,7,11-trien-1-yl)-2,8-dimethylchroman-6-yl)oxy)-4-oxobutanoic Acid], at 5-LOX [1], the IC50 worked out at 90 ± 30 nM and the remaining activity at 1 µM amounted to 1.1 ± 0.6%. Besides, on 5-LOX [2], the remaining activity at 1 µM was determined as 26.4 ± 6.7% and the IC50 was 450 ± 100 nM.
As to `C/C(=C\CC/C(C)=C/CC[C@]1(C)CCc2c(C)c(O)c(C=O)c(C)c2O1)CCC=C(CO)CO` [Compound 33], at 5-LOX [1], the IC50 is 170 ± 50 nM and the remaining activity at 1 µM turned out to be 8.9 ± 3.5%. Also, at 5-LOX [2], the remaining activity at 3 µM is 7.5 ± 2.2% and the IC50 came to 1380 ± 280 nM.
In the case of `C/C(=C\CC/C(C)=C/CC[C@]1(C)CCc2c(C=O)c(O)cc(C)c2O1)CCC=C(CO)CO` [Compound 34], on 5-LOX [1], the IC50 was determined as 170 ± 60 nM and the remaining activity at 1 µM stood at 13.8 ± 4.4%. Besides, at 5-LOX [2], the remaining activity at 3 µM is 6.1 ± 0.1% and the IC50 worked out at 1810 ± 320 nM.
As for `C/C(=C\CC/C(C)=C/CC[C@]1(C)CCc2c(CN3CCCC3)c(O)cc(C)c2O1)CCC=C(CO)CO` [Compound 35, 2-((4E,8E)-11-((R)-6-Hydroxy-2,8-dimethyl-5-(pyrrolidin-1-ylmethyl)chroman-2-yl)-4,8-dimethylundeca-4,8-dien-1-ylidene)propane-1,3-diol], on 5-LOX [1], the IC50 amounted to 170 ± 30 nM and the remaining activity at 1 µM was 4.1 ± 0.2%. Further, on 5-LOX [2], the remaining activity at 3 µM stood at 17.4 ± 2.4% and the half-maximal inhibitory concentration (IC50) turned out to be 1900 ± 110 nM.
Taken in the same sequence, the figures for `C/C(=C\CC/C(C)=C/CC[C@]1(C)CCc2c(CN(C)C)c(O)cc(C)c2O1)CCC=C(CO)CO` [Compound 36, 2-((4E,8E)-11-((R)-5-((Dimethylamino)methyl)-6-hydroxy-2,8-dimethylchroman-2-yl)-4,8-dimethylundeca-4,8-dien-1-ylidene)propane-1,3-diol] were 110 ± 20 nM, 3.7 ± 0.4%, 63.9 ± 14.4% and > 3000 nM.
Turning to `C/C(=C\CC/C(C)=C/CC[C@]1(C)CCc2c(CN3CCOCC3)c(O)cc(C)c2O1)CCC=C(CO)CO` [Compound 37, 2-((4E,8E)-11-((R)-6-Hydroxy-2,8-dimethyl-5-(morpholinomethyl)chroman-2-yl)-4,8-dimethylundeca-4,8-dien-1-ylidene)propane-1,3-diol], at 5-LOX [1], the IC50 stood at 120 ± 30 nM and the remaining activity at 1 µM worked out at 3.9 ± 0.6%. In addition, on 5-LOX [2], the remaining activity at 3 µM was found to be 11.3 ± 3.3% and the IC50 amounted to 1740 ± 90 nM.
Consider `C/C(=C\CC/C(C)=C/CC[C@]1(C)CCc2c(CN3CCCCC3)c(O)cc(C)c2O1)CCC=C(CO)CO` [Compound 38, 2-((4E,8E)-11-((R)-6-Hydroxy-2,8-dimethyl-5-(piperidin-1-ylmethyl)chroman-2-yl)-4,8-dimethylundeca-4,8-dien-1-ylidene)propane-1,3-diol], for which, on 5-LOX [1], the IC50 came to 110 ± 20 nM and the remaining activity at 1 µM turned out to be 5.1 ± 0.9%. For the same compound, at 5-LOX [2], the remaining activity at 3 µM came to 11.7 ± 1.8% and the IC50 came to 1950 ± 70 nM.
Regarding `C/C(=C\CC/C(C)=C/CC[C@]1(C)CCc2c(CN3CCN(C)CC3)c(O)cc(C)c2O1)CCC=C(CO)CO` [Compound 39, 2-((4E,8E)-11-((R)-6-Hydroxy-2,8-dimethyl-5-((4-methylpiperazin-1-yl)methyl)chroman-2-yl)-4,8-dimethylundeca-4,8-dien-1-ylidene)propane-1,3-diol], at 5-LOX [1], the IC50 came to 310 ± 70 nM and the remaining activity at 1 µM came out at 16 ± 1.9%. Also, at 5-LOX [2], the remaining activity at 3 µM was determined as 21.6 ± 6.8% and the IC50 worked out at 2030 ± 160 nM.
On to `C/C(=C\CC/C(C)=C/CC[C@]1(C)CCc2c(CN3CCN(C)CC3)c(O)c(CN3CCN(C)CC3)c(C)c2O1)CCC=C(CO)CO` [Compound 40, 2-((4E,8E)-11-((R)-6-Hydroxy-2,8-dimethyl-5,7-bis((4-methylpiperazin-1-yl)methyl)chroman-2-yl)-4,8-dimethylundeca-4,8-dien-1-ylidene)propane-1,3-diol], for which, on 5-LOX [1], the IC50 is > 1000 nM and the remaining activity at 1 µM was 50.3 ± 4.1%. In addition, at 5-LOX [2], the remaining activity at 3 µM was 77.8 ± 7.6% and the half-inhibitory concentration (IC50) is > 3000 nM.

Source of the values: paper PMC8365602 (Journal of Medicinal Chemistry, 2021).
